What was measured:
human Gal-3 (hGal-3) = human Gal-3 (hGal-3) (Homo sapiens (Human), UniProt P17931); test: Competitive binding assay: binding of biotinylated hGal-3 to microplate-adsorbed asialofetuin (ASF); conditions: Activity on hGal-3; mean values of several measurements
Procedure, shortened: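 For hGal-1, a variant with all six cysteines replaced by serines is preferred. Either galectin, biotinylated at 300-1000 ng/mL, competes with compound for microplate-bound ASF over 3 h at 4° C; peroxidase/ABTS detection gives IC50, averaged.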

human Gal-1 (hGal-1) = test: Competitive binding assay: binding of biotinylated hGal-1 to microplate-adsorbed asialofetuin (ASF); conditions: Activities on hGal-1; mean values of several measurements
Procedure, shortened: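 Spectrophotometric readout (streptavidin-peroxidase, ABTS) of biotinylated galectin retained on ASF-coated wells. Biotinylated hGal-1 or hGal-3, 300-1000 ng/mL, co-incubated with test compound 3 h at 4° C, then washed. Mean IC50 from repeat runs.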

human Gal-3 (hGal-3), sequence (P17931 whole entry): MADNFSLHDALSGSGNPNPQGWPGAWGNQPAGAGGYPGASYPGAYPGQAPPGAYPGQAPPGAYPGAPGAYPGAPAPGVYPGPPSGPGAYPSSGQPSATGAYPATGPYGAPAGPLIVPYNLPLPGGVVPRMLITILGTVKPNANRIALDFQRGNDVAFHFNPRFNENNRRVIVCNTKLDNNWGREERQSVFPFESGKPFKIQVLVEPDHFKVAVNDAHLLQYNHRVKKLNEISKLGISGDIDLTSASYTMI
human Gal-1 (hGal-1), sequence (P09382 2-135 limits assumed): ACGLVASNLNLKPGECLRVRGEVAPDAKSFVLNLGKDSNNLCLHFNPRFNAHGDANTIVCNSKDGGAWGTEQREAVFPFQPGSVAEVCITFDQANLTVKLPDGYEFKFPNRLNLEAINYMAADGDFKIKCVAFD

| SMILES | IC50 (human Gal-3 (hGal-3)) | IC50 (human Gal-1 (hGal-1)) |
| --- | --- | --- |
| CO[C@@H]1[C@@H](n2cc(-c3cc(F)c(F)c(F)c3)nn2)[C@@H](O)[C@@H](CO)O[C@H]1Cc1cn(C2CCN(C(=O)OC(C)(C)C)CC2)nn1 [Example 4.11, tert-butyl 4-(4-(((2S,3R,4S,5R,6R)-5-hydroxy-6-(hydroxymethyl)-3-methoxy-4-(4-(3,4,5-trifluorophenyl)-1H-1,2,3-triazol-1-yl)tetrahydro-2H-pyran-2-yl)methyl)-1H-1,2,3-triazol-1-yl)piperidine-1-carboxylate] | 1200 nM | 3030 nM |
| CO[C@@H]1[C@@H](n2cc(-c3cc(F)c(F)c(F)c3)nn2)[C@@H](O)[C@@H](CO)O[C@H]1Cc1cn(C2CCN(C(C)=O)CC2)nn1 [Example 4.12, 1-(4-(4-(((2S,3R,4S,5R,6R)-5-hydroxy-6-(hydroxymethyl)-3-methoxy-4-(4-(3,4,5-trifluorophenyl)-1H-1,2,3-triazol-1-yl)tetrahydro-2H-pyran-2-yl)methyl)-1H-1,2,3-triazol-1-yl)piperidin-1-yl)ethan-1-one] | 700 nM | 3040 nM |
| CO[C@@H]1[C@@H](n2cc(-c3cc(F)c(F)c(F)c3)nn2)[C@@H](O)[C@@H](CO)O[C@@H]1Cc1cn(C2CCN(C(=O)OCc3ccccc3)CC2)nn1 [Example 4.13, benzyl 4-(4-(((2R,3R,4S,5R,6R)-5-hydroxy-6-(hydroxymethyl)-3-methoxy-4-(4-(3,4,5-trifluorophenyl)-1H-1,2,3-triazol-1-yl)tetrahydro-2H-pyran-2-yl)methyl)-1H-1,2,3-triazol-1-yl)piperidine-1-carboxylate] | 17 nM | 340 nM |
| CO[C@@H]1[C@@H](n2cc(-c3cc(F)c(F)c(F)c3)nn2)[C@@H](O)[C@@H](CO)O[C@@H]1Cc1cn(C2CCSCC2)nn1 [Example 4.14, (2R,3R,4S,5R,6R)-2-(hydroxymethyl)-5-methoxy-6-((1-(tetrahydro-2H-thiopyran-4-yl)-1H-1,2,3-triazol-4-yl)methyl)-4-(4-(3,4,5-trifluorophenyl)-1H-1,2,3-triazol-1-yl)tetrahydro-2H-pyran-3-ol] | 36 nM | 3880 nM |
| CO[C@@H]1[C@@H](n2cc(-c3cc(F)c(F)c(F)c3)nn2)[C@@H](O)[C@@H](CO)O[C@@H]1Cc1cn(C2CC[S+]([O-])CC2)nn1 (stereo partly drawn) [Example 4.15, 4-(4-(((2R,3R,4S,5R,6R)-5-hydroxy-6-(hydroxymethyl)-3-methoxy-4-(4-(3,4,5-trifluorophenyl)-1H-1,2,3-triazol-1-yl)tetrahydro-2H-pyran-2-yl)methyl)-1H-1,2,3-triazol-1-yl)tetrahydro-2H-thiopyran 1-oxide] | 210 nM | 4900 nM |
| CO[C@@H]1[C@@H](n2cc(-c3cc(F)c(F)c(F)c3)nn2)[C@@H](O)[C@@H](CO)O[C@@H]1Cc1cn(C2CCS(=O)(=O)CC2)nn1 [Example 4.16, 4-(4-(((2R,3R,4S,5R,6R)-5-hydroxy-6-(hydroxymethyl)-3-methoxy-4-(4-(3,4,5-trifluorophenyl)-1H-1,2,3-triazol-1-yl)tetrahydro-2H-pyran-2-yl)methyl)-1H-1,2,3-triazol-1-yl)tetrahydro-2H-thiopyran 1,1-dioxide] | 35 nM | 670 nM |
| CO[C@@H]1[C@@H](n2cc(-c3cc(F)c(F)c(F)c3)nn2)[C@@H](O)[C@@H](CO)O[C@@H]1Cc1cn(C2CCS(=N)(=O)CC2)nn1 (stereo partly drawn) [Example 4.17, 4-(4-(((2R,3R,4S,5R,6R)-5-hydroxy-6-(hydroxymethyl)-3-methoxy-4-(4-(3,4,5-trifluorophenyl)-1H-1,2,3-triazol-1-yl)tetrahydro-2H-pyran-2-yl)methyl)-1H-1,2,3-triazol-1-yl)-1-iminohexahydro-1l6-thiopyran 1-oxide] | 25 nM | 170 nM |
| CN=S1(=O)CCC(n2cc(C[C@H]3O[C@H](CO)[C@H](O)[C@H](n4cc(-c5cc(F)c(F)c(F)c5)nn4)[C@H]3OC)nn2)CC1 (stereo partly drawn) [Example 4.18, 4-(4-(((2R,3R,4S,5R,6R)-5-hydroxy-6-(hydroxymethyl)-3-methoxy-4-(4-(3,4,5-trifluorophenyl)-1H-1,2,3-triazol-1-yl)tetrahydro-2H-pyran-2-yl)methyl)-1H-1,2,3-triazol-1-yl)-1-(methylimino)hexahydro-1l6-thiopyran 1-oxide] | 57 nM | 240 nM |
| CO[C@@H]1[C@@H](n2cc(-c3cc(F)c(F)c(F)c3)nn2)[C@@H](O)[C@@H](CO)O[C@@H]1Cc1cn(C2CCN([S+]([O-])C(C)(C)C)CC2)nn1 (stereo partly drawn) [Example 4.19, (2R,3R,4S,5R,6R)-6-((1-(1-(RS-tert-butylsulfinyl)piperidin-4-yl)-1H-1,2,3-triazol-4-yl)methyl)-2-(hydroxymethyl)-5-methoxy-4-(4-(3,4,5-trifluorophenyl)-1H-1,2,3-triazol-1-yl)tetrahydro-2H-pyran-3-ol] | 34 nM | 1000 nM |
| CO[C@@H]1[C@@H](n2cc(-c3cc(F)c(F)c(F)c3)nn2)[C@@H](O)[C@@H](CO)O[C@@H]1Cn1cc(C2CCN(C(=O)OCc3ccccc3)CC2)nn1 [Example 4.20, benzyl 4-(1-(((2R,3R,4S,5R,6R)-5-hydroxy-6-(hydroxymethyl)-3-methoxy-4-(4-(3,4,5-trifluorophenyl)-1H-1,2,3-triazol-1-yl)tetrahydro-2H-pyran-2-yl)methyl)-1H-1,2,3-triazol-4-yl)piperidine-1-carboxylate] | 21 nM | 520 nM |
| CO[C@@H]1[C@@H](n2cc(-c3cc(F)c(F)c(F)c3)nn2)[C@@H](O)[C@@H](CO)O[C@@H]1Cc1cn(C2CCN(S(=N)(=O)C(C)(C)C)CC2)nn1 (stereo partly drawn) [Example 4.21, (2R,3R,4S,5R,6R)-2-(hydroxymethyl)-5-methoxy-6-((1-(1-(2-methylpropan-2-ylsulfonimidoyl)piperidin-4-yl)-1H-1,2,3-triazol-4-yl)methyl)-4-(4-(3,4,5-trifluorophenyl)-1H-1,2,3-triazol-1-yl)tetrahydro-2H-pyran-3-ol] | 19 nM | 86 nM |
| CO[C@@H]1[C@@H](n2cc(-c3cc(F)c(F)c(F)c3)nn2)[C@@H](O)[C@@H](CO)O[C@@H]1Cn1cc(C2CCN(S(=O)(=O)C(C)C)CC2)nn1 [Example 4.22, (2R,3R,4S,5R,6R)-2-(hydroxymethyl)-6-((4-(1-(isopropylsulfonyl)piperidin-4-yl)-1H-1,2,3-triazol-1-yl)methyl)-5-methoxy-4-(4-(3,4,5-trifluorophenyl)-1H-1,2,3-triazol-1-yl)tetrahydro-2H-pyran-3-ol] | 45 nM | 770 nM |
| CO[C@@H]1[C@@H](n2cc(-c3cc(F)c(F)c(F)c3)nn2)[C@@H](O)[C@@H](CO)O[C@@H]1Cn1cc(C2CCN(S(=O)(=O)c3ccc(C)cc3)CC2)nn1 [Example 4.23, (2R,3R,4S,5R,6R)-2-(hydroxymethyl)-5-methoxy-6-((4-(1-tosylpiperidin-4-yl)-1H-1,2,3-triazol-1-yl)methyl)-4-(4-(3,4,5-trifluorophenyl)-1H-1,2,3-triazol-1-yl)tetrahydro-2H-pyran-3-ol] | 38 nM | 1230 nM |
| CCN=S1(=O)CCC(n2cc(C[C@H]3O[C@H](CO)[C@H](O)[C@H](n4cc(-c5cc(F)c(F)c(F)c5)nn4)[C@H]3OC)nn2)CC1 (stereo partly drawn) [Example 4.24, 1-(ethylimino)-4-(4-(((2R,3R,4S,5R,6R)-5-hydroxy-6-(hydroxymethyl)-3-methoxy-4-(4-(3,4,5-trifluorophenyl)-1H-1,2,3-triazol-1-yl)tetrahydro-2H-pyran-2-yl)methyl)-1H-1,2,3-triazol-1-yl)hexahydro-1l6-thiopyran 1-oxide] | 54 nM | 310 nM |
| CN=S(=O)(C(C)C)N1CCC(c2cn(C[C@H]3O[C@H](CO)[C@H](O)[C@H](n4cc(-c5cc(F)c(F)c(F)c5)nn4)[C@H]3OC)nn2)CC1 (stereo partly drawn) [Example 4.25, (2R,3R,4S,5R,6R)-2-(hydroxymethyl)-5-methoxy-6-((4-(1-(N-methylpropan-2-ylsulfonimidoyl)piperidin-4-yl)-1H-1,2,3-triazol-1-yl)methyl)-4-(4-(3,4,5-trifluorophenyl)-1H-1,2,3-triazol-1-yl)tetrahydro-2H-pyran-3-ol] | 120 nM | 1570 nM |
| CO[C@@H]1[C@@H](n2cc(-c3cc(F)c(F)c(F)c3)nn2)[C@@H](O)[C@@H](CO)O[C@@H]1Cn1cc(C2CCN(S(=O)(=O)N(C)C)CC2)nn1 [Example 4.26, 4-(1-(((2R,3R,4S,5R,6R)-5-hydroxy-6-(hydroxymethyl)-3-methoxy-4-(4-(3,4,5-trifluorophenyl)-1H-1,2,3-triazol-1-yl)tetrahydro-2H-pyran-2-yl)methyl)-1H-1,2,3-triazol-4-yl)-N,N-dimethylpiperidine-1-sulfonamide] | 61 nM | 1240 nM |
| CO[C@@H]1[C@@H](n2cc(-c3cc(F)c(F)c(F)c3)nn2)[C@@H](O)[C@@H](CO)O[C@@H]1Cn1cc(C2CCN(C(=O)NC(C)(C)C)CC2)nn1 [Example 4.27, N-(tert-butyl)-4-(1-(((2R,3R,4S,5R,6R)-5-hydroxy-6-(hydroxymethyl)-3-methoxy-4-(4-(3,4,5-trifluorophenyl)-1H-1,2,3-triazol-1-yl)tetrahydro-2H-pyran-2-yl)methyl)-1H-1,2,3-triazol-4-yl)piperidine-1-carboxamide] | 34 nM | 380 nM |
| CO[C@@H]1[C@@H](n2cc(-c3cc(F)c(F)c(F)c3)nn2)[C@@H](O)[C@@H](CO)O[C@@H]1Cc1cn(C2CCS(=O)(=NCc3ccccc3)CC2)nn1 (stereo partly drawn) [Example 4.28, 1-(benzylimino)-4-(4-(((2R,3R,4S,5R,6R)-5-hydroxy-6-(hydroxymethyl)-3-methoxy-4-(4-(3,4,5-trifluorophenyl)-1H-1,2,3-triazol-1-yl)tetrahydro-2H-pyran-2-yl)methyl)-1H-1,2,3-triazol-1-yl)hexahydro-1l6-thiopyran 1-oxide] | 13 nM | 120 nM |

From patent publication US12319672B2, “Alpha-D-galactopyranoside derivatives” (Idorsia Pharmaceuticals Ltd, priority 2019, dated 2025)
